Measurements reported in patent US6828322B2, “Triazolo-pyridazine derivatives as ligands for GABA receptors” (Merck Sharp & Dohme Ltd., priority 1998, dated 2004).

Row | melting point [°C] | SMILES
1 | 189 to 190 | Cn1ncnc1COc1nn2c(-c3ccccc3F)nnc2cc1-c1cccs1 (hydrate or solvate) [Example 18, 3-(2-Fluorophenyl)-6-(2-methyl-2H-1,2,4-triazol-3-ylmethoxy)-7-(thien-2-yl)-1,2,4-triazolo[4,3-b]pyridazine]
2 | 196 | Cn1ncnc1COc1nn2c(-c3ccc(F)cc3F)nnc2cc1C1(C)CCCCC1 [Example 12, 3-(2,4-Difluorophenyl)-7-(1-methylcyclohexyl)-6-(2-methyl-2H-1,2,4-triazol-3-ylmethoxy)-1,2,4-triazolo[4,3-b]pyridazine]
3 | 156 | Cn1cnc(COc2nn3c(-c4ccc(F)cc4F)nnc3cc2C2(C)CCCCC2)n1 [Example 13, 3-(2,4-Difluorophenyl)-7-(1-methylcyclohexyl)-6-(1-methyl-1H-1,2,4-triazol-3-ylmethoxy)-1,2,4-triazolo[4,3-b]pyridazine]
4 | 184 to 186 | Cn1ccc(COc2nn3c(-c4ccccc4F)nnc3cc2C2CCC2)n1 [Example 14, 7-Cyclobutyl-3-(2-fluorophenyl)-6-(1-methyl-1H-pyrazol-3-ylmethoxy)-1,2,4-triazolo[4,3-b]pyridazine]
5 | 150 | Cc1cc(COc2nn3c(-c4ccccc4F)nnc3cc2C2CCC2)no1 [Example 15, 7-Cyclobutyl-3-(2-fluorophenyl)-6-(5-methylisoxazol-3-ylmethoxy)-1,2,4-triazolo[4,3-b]pyridazine]
6 | 173 | Cn1ccnc1COc1nn2c(-c3ccccc3F)nnc2cc1C1CCC1 [Example 16, 7-Cyclobutyl-3-(2-fluorophenyl)-6-(1-methyl-1H-Imidazol-2-ylmethoxy)-1,2,4-triazolo[4,3-b]pyridazine]
7 | 228 | Cn1cnnc1COc1nn2c(-c3ccccc3F)nnc2cc1C1CCC1 [Example 17, 7-Cyclobutyl-3-(2-fluorophenyl)-6-(4-methyl-4H-1,2,4-triazol-3-ylmethoxy)-1,2,4-triazolo[4,3-b]pyridazine]
8 | 209 to 212 | Cn1ncnc1COc1nn2c(-c3ccc(F)cc3F)nnc2cc1-c1cccs1 [Example 19, 3-(2,4-Difluorophenyl)-6-(2-methyl-2H-1,2,4-triazol-3-ylmethoxy)-7-(thien-2-yl)-1,2,4-triazolo[4,3-b]pyridazine]
9 | 176 | Cn1cnc(COc2nn3c(-c4ccccc4F)nnc3cc2C2CCC2)c1 [Example 24, 7-Cyclobutyl-3-(2-fluorophenyl)-6-(1-methyl-1H-imidazol-4-ylmethoxy)-1,2,4triazolo[4,3-b]pyridazine]
10 | 154 to 162 | Cn1ncnc1COc1nn2c(-c3ccccc3F)nnc2cc1C1(F)CCC1 [Example 25, 7-(1-Fluorocyclobutyl)-3-(2-fluorophenyl)-6-(2-methyl-2H-1,2,4-triazol-3-ylmethoxy)-1,2,4-triazolo[4,3-b]pyridazine]
11 | 184 to 186 | Cn1nccc1COc1nn2c(-c3ccccc3F)nnc2cc1C1CCC1 [Example 26, 7-Cyclobutyl-3-(2-fluorophenyl)-6-(2-methyl-2H-pyrazol-3-ylmethoxy)-1,2,4-triazolo[4,3-b]pyridazine]
12 | 134 to 136 | CC(C)Cc1cc2nnc(-c3ccccc3F)n2nc1OCc1ncnn1C [Example 28, 3-(2-Fluorophenyl)-7-(2-methylpropyl)-6-(2-methyl-2H-1,2,4-triazol-3-ylmethoxy)-1,2,4-triazolo[4,3-b]pyridazine]
13 | 103 to 105 | CC(C)CCc1cc2nnc(-c3ccccc3F)n2nc1OCc1ncnn1C [Example 29, 3-(2-Fluorophenyl)-7-(3-methylbutyl)-6-(2-methyl-2H-1,2,4-triazol-3-ylmethoxy)-1,2,4-triazolo[4,3-b]pyridazine]
14 | 135 to 137 | Cn1ncnc1COc1nn2c(-c3ccccc3F)nnc2cc1CC1CCCC1 [Example 30, 7-Cyclopentylmethyl-3-(2-fluorophenyl)-6-(2-methyl-2H-1,2,4-triazol-3-ylmethoxy)-1,2,4-triazolo[4,3-b]pyridazine]
15 | 123 to 126 | Cn1ncnc1COc1nn2c(-c3ccccc3F)nnc2cc1C(F)(F)F [Example 35, 3-(2-Fluorophenyl)-6-(2-methyl-2H-1,2,4-triazol-3-ylmethoxy)-7-trifluoromethyl-1,2,4-triazolo[4,3-b]pyridazine]
16 | 191 | Cn1ncnc1COc1nn2c(-c3ccccc3F)nnc2cc1C1(C)CCOCC1 [Example 36, 3-(2-Fluorophenyl)-7-(4-methyltetrahydropyran-4-yl)-6-(2-methyl-2H-1,2,4-triazol-3-ylmethoxy)-1,2,4-triazolo [4,3-b]pyridazine]
17 | 154 | Cn1cnc(COc2nn3c(-c4ccccc4F)nnc3cc2C2(C)CCOCC2)n1 [Example 37, 3-(2-Fluorophenyl)-7-(4-methyltetrahydropyran-4-yl)-6-(1-methyl-1H-1,2,4-triazol-3-ylmethoxy)-1,2,4-triazolo [4,3-b]pyridazine]
18 | 193 | Cn1cnc(COc2nn3c(-c4ccccc4F)nnc3cc2C2(C)CCC(F)(F)CC2)n1 [Example 40, 7-(4,4-Difluoro-1-methylcyclohexyl)-3-(2-fluorophenyl)-6-(1-methyl-1H-1,2,4-triazol-3-ylmethoxy)-1,2,4-triazolo [4,3-b]pyridazine]
19 | 178 | Cn1ncnc1COc1nn2c(-c3ccccc3F)nnc2cc1C1CC(F)(F)C1 [Example 42, 7-(3,3-Difluorocyclobutyl)-3-(2-fluorophenyl)-6-(2-methyl-2H-1,2,4-triazol-3-ylmethoxy)-1,2,4-triazolo[4,3-b]pyridazine]
20 | 136 to 139 | Cn1ncnc1COc1nn2c(-c3ccccc3F)nnc2cc1C1CCCO1 (stereo not drawn) [Example 43, 3-(2-Fluorophenyl)-6-(2-methyl-2H-1,2,4-triazol-3-ylmethoxy)-7-(tetrahydrofur-2-yl)-1,2,4-triazolo[4,3-b]pyridazine]
21 | 204 to 206 | Cn1ncnc1COc1nn2c(-c3ccccc3F)nnc2cc1-c1cccc(F)c1 [Example 44, 7-(3-Fluorophenyl)-3-(2-fluorophenyl)-6-(2-methyl-2H-1,2,4-triazol-3-ylmethoxy)-1,2,4-triazolo[4,3-b]pyridazine]
